This note sets out measurements from US5098900A, “3(2H)pyridazinone, process for its preparation and anti-allergic agent containing it” (Nissan Chemical Industries Ltd., priority 1984, dated 1992).

The first assay has as its system LTD4. Put plainly: LTD4 antagonism in isolated guinea-pig trachea (LTD4-induced contraction). Type of assay: cell-based. The following applies: Cavia porcellus, 5 min, test compound 10^-5 g/ml, LTD4 2×10^-8 g/ml. As for the experimental part:
(ii) LTC4 and LTD4 antagonisms in guinea-pig trachea
Antagonism for LTC4 and LTD4 were determined in isolated guinea-pig trachea prepared as spiral strip. 10 Tracheal preparations were suspended under 1 g tension in […] and they were incubated for 1 hr prior to use. Contractile responses to LTC4 (2×10^-8 g/ml) and LTD4 (2×10^-8 g/ml) were obtained after the maximal response to histamine (10^-4 M). Test compounds dissolved in 100% dimethyl sulfoxide were added to the organ baths (final concentration of 10^-5 g/ml) 5 min prior to LTC4 and LTD4 addition, and then contractile responses to LTC4 and LTD4 were compared with those of control which was obtained from a paired trachea in the absence of test compounds. LTC4 - and LTD4 -induced contractions were expressed as a percentage of the maximal response to histamine. The antagonism was determined as follows: Antagonism (%)=(1.0-% contraction in test/% contraction in control)×100
`COc1ccc(CNc2cnn(C(C)C)c(=O)c2Cl)cc1O` [compound 138]: the inhibition (as a rule, the drop in the measured response relative to a control, in per cent) at 10 µg/mL turned out to be 86%.
Compound `CCCOc1cc(CNc2cnn(C(C)C)c(=O)c2C)ccc1OC` [compound 153] displayed an inhibition at 10 µg/mL of 45%.
For `CCCOc1cc(CNc2cnn(C(C)C)c(=O)c2Cl)ccc1OCc1ccccc1` [compound 117], 10 µg/mL produced 25% inhibition.
Regarding `CCc1cc(CNc2cnn(CC)c(=O)c2Cl)ccc1O` [compound 132], the inhibition at 10 µg/mL was found to be 61%.
`CCCCCOc1cc(CNc2cnn(C(C)(C)C)c(=O)c2Cl)ccc1OC` [compound 20] came in with an inhibition at 10 µg/mL of 17%.
The compound `CC(C)n1ncc(NCc2cccc(O)c2)c(Cl)c1=O` [Compound No. 137, 4-Chloro-5-(3-hydroxybenzylamino)-2-i-propyl-3-(2H)pyridazinone] had an inhibition at 10 µg/mL of 96%.
In turn, `CCOc1cc(CNc2cnn(CC)c(=O)c2Br)ccc1OC` [compound 160] displayed an inhibition at 10 µg/mL of 98%.
`CCOc1cc(CNc2cnn(CC)c(=O)c2Cl)ccc1O` [compound 136] gave an inhibition at 10 µg/mL of 64%.
As to `Cc1ccc(CNc2cnn(C(C)C)c(=O)c2Br)c(C)c1` [compound 168], the inhibition at 10 µg/mL amounted to 99%.
`COc1ccc(OC)c(CNc2cnn(C(C)C)c(=O)c2Cl)c1` [compound 104] displayed an inhibition at 10 µg/mL of 68%.
As for `COc1ccc(CNc2cnn(C(C)C)c(=O)c2Cl)cc1OCCCCC(=O)O` [compound 143], the inhibition at 10 µg/mL was determined as 28%.
Still for that read-out and setting: the value for `CCOc1ccc(CNc2cnn(C(C)C)c(=O)c2Br)cc1` [Compound No. 164, 4-Bromo-5-(4-ethoxybenzylamino)-2-i-propyl-3(2H)pyridazinone] was 82%; that for `CCOc1cccc(CNc2cnn(C(C)C)c(=O)c2Cl)c1OC` [compound 111] was 72%.
With `COc1cc(CNc2cnn(C(C)C)c(=O)c2Cl)cc(OC)c1OC` [compound 122], 10 µg/mL produced 23% inhibition.
The same measure, in the same setting: the value for `CCCOc1cc(CNc2cnn(CC)c(=O)c2Br)ccc1OC` [compound 161] was 95%.
With `CC(C)n1ncc(NCc2ccc(OCc3ccccc3)cc2)c(Cl)c1=O` [compound 96], at 10 µg/mL the inhibition was 59%.
Turning to `CCOCCNC(=O)c1ccc(CNc2cnn(C(C)(C)C)c(=O)c2Cl)cc1` [compound 56], the inhibition at 10 µg/mL was found to be 19%.
Consider `CN(C)CCNC(=O)c1ccc(CNc2cnn(C(C)(C)C)c(=O)c2Cl)cc1` [compound 58], for which 10 µg/mL produced 23% inhibition.
On to `CCn1ncc(NCc2ccc(OC)cc2OC)c(Br)c1=O` [compound 159], for which the inhibition at 10 µg/mL is 98%.
In turn, `CCCOc1cc(CNc2cnn(CC)c(=O)c2Cl)ccc1O` [compound 134] had an inhibition at 10 µg/mL of 75%.
On to `CCn1ncc(NCc2ccc(SC)cc2)c(Cl)c1=O` [compound 124], for which the inhibition at 10 µg/mL amounted to 71%.
On to `C=CCNC(=O)c1ccc(CNc2cnn(C(C)(C)C)c(=O)c2Cl)cc1` [Compound No. 54, 4-Chloro-5-(4-allylaminocarbonylbenzylamino)-2-t-butyl-3(2H)pyridazinone], for which the inhibition at 10 µg/mL worked out at 10%.
The compound `CCn1ncc(NCc2ccc(OC)cc2)c(Br)c1=O` [compound 154] registered an inhibition at 10 µg/mL of 100%.
Take `COc1ccc(CNc2cnn(C(C)C)c(=O)c2Cl)cc1OCCCCC(=O)OC(C)(C)C` [compound 141]: at 10 µg/mL the inhibition was 90%.
For `COC(=O)CCCCOc1cccc(CNc2cnn(C(C)C)c(=O)c2Cl)c1` [Compound No. 144], at 10 µg/mL the inhibition was 44%.
Compound `CCOC(=O)CCNC(=O)/C=C/c1ccc(CNc2cnn(C(C)(C)C)c(=O)c2Cl)cc1` [Compound No. 60] gave an inhibition at 10 µg/mL of 15%.
For `CCc1ccc(CNc2cnn(CC)c(=O)c2Cl)cc1` [compound 81], the inhibition at 10 µg/mL was 68%.
Compound `CCOc1cccc(CNc2cnn(CC)c(=O)c2Cl)c1OCc1ccccc1` [compound 116] had an inhibition at 10 µg/mL of 89%.
`COc1cccc(CNc2cnn(C(C)C)c(=O)c2Cl)c1` [Compound No. 7] gave an inhibition at 10 µg/mL of 92%.
As to `CC(C)(C)n1ncc(NCc2ccc(/C=C/C(=O)NCCC(=O)O)cc2)c(Cl)c1=O` [Compound No. 61, 4-Chloro-5-[4-(β-carboxyethylaminocarbonyl-2-transethenyl)benzylamino]-2-t-butyl-3(2H)pyridazinone], the inhibition at 10 µg/mL was 21%.
`CCOc1cccc(CNc2cnn(CC)c(=O)c2Cl)c1O` [compound 129] gave an inhibition at 10 µg/mL of 48%.
The same measure, in the same setting: then `CCOc1cc(CNc2cnn(C(C)C)c(=O)c2Br)ccc1OC` [compound 166], with 100%.
`CCCN(CCC)C(=O)c1ccc(CNc2cnn(C(C)C)c(=O)c2Cl)cc1` [Compound No. 125, 4-Chloro-5-(4-di-n-propylaminocarbonylbenzylamino)-2-i-propyl-3(2H)pyridazinone] gave an inhibition at 10 µg/mL of 53%.
`COC(=O)CCCCOc1cc(CNc2cnn(C(C)C)c(=O)c2Cl)ccc1OC` [compound 145] returned an inhibition at 10 µg/mL of 81%.
In turn, `COc1ccc(CNc2cnn(C(C)C)c(=O)c2)c(OC)c1` [Compound No. 100, 5-(2,4-dimethoxybenzylamino)-2-i-propyl-3(2H)pyridazinone] showed an inhibition at 10 µg/mL of 21%.
For the compound `CCCn1ncc(NCc2ccc(N(C)C)cc2)c(Cl)c1=O` [compound 126], the inhibition at 10 µg/mL worked out at 63%.
Still for that read-out and setting: the value for `CCn1ncc(NCc2ccc(N(C)C)cc2)c(Cl)c1=O` [compound 46] was 49%; that for `CCCOc1cc(CNc2cnn(C(C)C)c(=O)c2Br)ccc1OC` [compound 167] was 96%.
On the same count and under the same terms, the value for `CCc1cc(CNc2cnn(C(C)C)c(=O)c2Cl)ccc1OC` [compound 84] was 96%; that for `CC(C)n1ncc(N(C)Cc2cccc(OCCCCCO)c2)c(Cl)c1=O` [Compound No. 150, 4-Chloro-5-[3-(5-hydroxy)pentoxy-N-methyl-benzylamino]-2-i-propyl-3(2H)pyridazinone] was 57%; that for `CCOc1cc(CNc2cnn(C(C)C)c(=O)c2Cl)ccc1OCc1ccccc1` [compound 113] was 40%.
Take `CCCOc1cc(CNc2cnn(CC)c(=O)c2Cl)ccc1OCc1ccccc1` [compound 118]: at 10 µg/mL the inhibition was 61%.
For `CCOCCCNC(=O)c1ccc(CNc2cnn(C(C)(C)C)c(=O)c2Cl)cc1` [compound 57], the inhibition at 10 µg/mL amounted to 27%.
For the compound `COc1ccc(CNc2cnn(C(C)C)c(=O)c2C)cc1` [Compound No. 151, 4-Methyl-5-(4-methoxybenzylamino)-2-i-propyl-3(2H)-pyridazinone], the inhibition at 10 µg/mL stood at 78%.
`CCCOc1cc(CNc2cnn(C(C)C)c(=O)c2Cl)ccc1O` [compound 133]: testing at 10 µg/mL gave an inhibition of 66%.
Regarding `CCCCCOc1cc(CNc2cnn(CC)c(=O)c2Cl)ccc1OC` [compound 19], at 10 µg/mL the inhibition was 66%.
With `CC(C)n1ncc(NCc2ccc(O)cc2)c(Cl)c1=O` [compound 130], at 10 µg/mL the inhibition was 100%.
On to `CCOc1cccc(CNc2cnn(C(C)C)c(=O)c2Br)c1` [compound 165], for which the inhibition at 10 µg/mL worked out at 71%.
Consider `CCc1cc(CNc2cnn(CC)c(=O)c2Cl)ccc1OCc1ccccc1` [compound 83], for which the inhibition at 10 µg/mL was 74%.
The compound `COc1ccc(CNc2cnn(C(C)(C)C)c(=O)c2Br)cc1OC` [compound 17] yielded an inhibition at 10 µg/mL of 80%.
`CCOc1cccc(CNc2cnn(C(C)C)c(=O)c2C)c1` [compound 152]: the inhibition at 10 µg/mL amounted to 75%.
On the same count and under the same terms, the value for `CCc1cc(CNc2cnn(C(C)C)c(=O)c2Cl)ccc1OCc1ccccc1` [compound 82] was 46%; that for `CCn1ncc(NCc2ccc(C)cc2C)c(Br)c1=O` [compound 158] was 99%; that for `COCCCCCOc1cccc(CN(C)c2cnn(C(C)C)c(=O)c2Cl)c1` [Compound No. 149, 4-Chloro-5-[3-(5-methoxy)pentoxy-N-methylbenzylamino]-2-i-propyl-3(2H)pyridazinone] was 68%.
For the compound `COc1cccc(CNc2cnn(C(C)(C)C)c(=O)c2Cl)c1` [Compound No. 8], the inhibition at 10 µg/mL came out at 53%.
In turn, `CC(C)n1ncc(NCc2ccc(Cl)cc2)c(Cl)c1=O` [compound 123] yielded an inhibition at 10 µg/mL of 88%.
With `CCOc1ccc(CNc2cnn(C(C)C)c(=O)c2Cl)cc1OC` [compound 107], the inhibition at 10 µg/mL came out at 65%.
The compound `CCOc1cc(CNc2cnn(CC)c(=O)c2Cl)ccc1OCc1ccccc1` [compound 115] registered an inhibition at 10 µg/mL of 73%.
For `CCCOc1ccc(CNc2cnn(CC)c(=O)c2Cl)cc1OC` [compound 108], 10 µg/mL produced 53% inhibition.
The compound `CCOc1ccc(CNc2cnn(CC)c(=O)c2Br)cc1` [compound 155] came in with an inhibition at 10 µg/mL of 60%.
`CN(C)c1ccc(CNc2cnn(C(C)(C)C)c(=O)c2Br)cc1` [compound 28] returned an inhibition at 10 µg/mL of 52%.
In turn, `CCOc1cccc(CNc2cnn(C(C)C)c(=O)c2Cl)c1O` [compound 127] yielded an inhibition at 10 µg/mL of 76%.
Compound `CCc1c(NCc2ccc(C)cc2)cnn(C(C)(C)C)c1=O` [Compound No. 36, 4-Ethyl-5-(4-methylbenzylamino)-2-t-butyl-3(2H)pyridazinone] returned an inhibition at 10 µg/mL of 19%.
Compound `CC(C)n1ncc(NCc2ccc(C=O)cc2)c(Cl)c1=O` [Compound No. 140, 4-Chloro-5-(4-formylbenzylamino)-2-i-proyl-3(2H)pyridazinone] had an inhibition at 10 µg/mL of 77%.

Staying with this assay, now noted: test compound 10^-5 g/ml, LTD4 2×10^-8 g/ml, 5 min.
For `CC(C)n1ncc(NCc2ccc(N(C)C)cc2)c(Cl)c1=O` [compound 26], the LTD4 antagonism is 38%.
